Data as given in ChEMBL document CHEMBL1201862, “PubChem BioAssay data set” (2004).
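Protocol summary: plate cells (96-well), add compound at 5 concentrations, incubate 48 h, interpolate endpoints linearly. GI50 is the concentration that inhibits growth by half.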 The source made the active and inactive calls. Cut-off read from the data, not from the text of the source: active = GI50 up to about 1.1 µM and inactive = higher.

What was measured:
Assay in all cases: inhibition of tumour cell growth, NCI panel, 48 h
DMS-114 = system: DMS-114
LXFL 529 = system: LXFL 529
TK-10 = system: TK-10
SNB-78 = system: SNB-78
SK-MEL-2 = system: SK-MEL-2
KM12 = system: KM12
RXF 631 = system: RXF 631
SK-MEL-28 = system: SK-MEL-28
786-0 = system: 786-0
Malme-3M = system: Malme-3M
HCC 2998 = system: HCC 2998
HT-29 = system: HT-29
U-251 = system: U-251
ACHN = system: ACHN
K562 = system: K562
CCRF-CEM = system: CCRF-CEM
OVCAR-8 = system: OVCAR-8
CAKI-1 = system: CAKI-1
IGROV-1 = system: IGROV-1
SW-620 = system: SW-620
HL-60 = system: HL-60
UACC-257 = system: UACC-257
UO-31 = system: UO-31
SK-OV-3 = system: SK-OV-3
LOX IMVI = system: LOX IMVI
DMS-273 = system: DMS-273
A498 = system: A498
SF-268 = system: SF-268
NCI-H226 = system: NCI-H226
A549 = system: A549
HCT-15 = system: HCT-15
M19-MEL = system: M19-MEL
SN12C = system: SN12C
RPMI-8226 = system: RPMI-8226
OVCAR-5 = system: OVCAR-5
HOP-62 = system: HOP-62
HCT-116 = system: HCT-116
NCI-H460 = system: NCI-H460
EKVX = system: EKVX
UACC-62 = system: UACC-62
DLD-1 = system: DLD-1
SNB-75 = system: SNB-75
SF-295 = system: SF-295
HOP-92 = system: HOP-92
SNB-19 = system: SNB-19
NCI-H522 = system: NCI-H522
SK-MEL-5 = system: SK-MEL-5
KM-20L2 = system: KM-20L2
NCI-H23 = system: NCI-H23
COLO 205 = system: COLO 205
OVCAR-3 = system: OVCAR-3
OVCAR-4 = system: OVCAR-4
HOP-18 = system: HOP-18
MOLT-4 = system: MOLT-4
M14 = system: M14
RXF 393 = system: RXF 393
XF498 = system: XF498

## O=S(=O)(N/N=C\c1c2ccccc2[n+]([O-])c2ccccc12)c1ccc(Cl)cc1
DMS-114
  GI50: > 100 µM (inactive)
LXFL 529
  GI50: > 100 µM (inactive)
TK-10
  GI50: > 100 µM (inactive)
SNB-78
  GI50: > 100 µM (inactive)
SK-MEL-2
  GI50: 46.1 µM (inactive)
KM12
  GI50: > 100 µM (inactive)
RXF 631
  GI50: > 100 µM (inactive)
SK-MEL-28
  GI50: > 100 µM (inactive)
786-0
  GI50: 43.5 µM (inactive)
Malme-3M
  GI50: 53.1 µM (inactive)
HCC 2998
  GI50: > 100 µM (inactive)
HT-29
  GI50: > 100 µM (inactive)
U-251
  GI50: 94.4 µM (inactive)
ACHN
  GI50: 35.6 µM (inactive)
K562
  GI50: 48.2 µM (inactive)
CCRF-CEM
  GI50: > 100 µM (inactive)
OVCAR-8
  GI50: > 100 µM (inactive)
CAKI-1
  GI50: > 100 µM (inactive)
IGROV-1
  GI50: > 100 µM (inactive)
SW-620
  GI50: > 100 µM (inactive)
HL-60
  GI50: > 100 µM (inactive)
UACC-257
  GI50: > 100 µM (inactive)
UO-31
  GI50: > 100 µM (inactive)
SK-OV-3
  GI50: > 100 µM (inactive)
LOX IMVI
  GI50: > 100 µM (inactive)
DMS-273
  GI50: 93.3 µM (inactive)
A498
  GI50: > 100 µM (inactive)
SF-268
  GI50: > 100 µM (inactive)
NCI-H226
  GI50: 30.3 µM (inactive)
A549
  GI50: > 100 µM (inactive)
HCT-15
  GI50: > 100 µM
M19-MEL
  GI50: > 100 µM (inactive)
SN12C
  GI50: > 100 µM (inactive)
RPMI-8226
  GI50: > 100 µM (inactive)
OVCAR-5
  GI50: > 100 µM (inactive)
HOP-62
  GI50: 80 µM (inactive)
HCT-116
  GI50: 45.5 µM (inactive)
NCI-H460
  GI50: > 100 µM (inactive)
EKVX
  GI50: > 100 µM (inactive)
UACC-62
  GI50: > 100 µM (inactive)
DLD-1
  GI50: > 100 µM (inactive)
SNB-75
  GI50: 26.1 µM (inactive)
SF-295
  GI50: 66.4 µM (inactive)
HOP-92
  GI50: > 100 µM (inactive)
SNB-19
  GI50: 53.3 µM (inactive)
NCI-H522
  GI50: 93.8 µM (inactive)
SK-MEL-5
  GI50: > 100 µM (inactive)
KM-20L2
  GI50: > 100 µM (inactive)
NCI-H23
  GI50: 85.5 µM (inactive)
COLO 205
  GI50: > 100 µM (inactive)
OVCAR-3
  GI50: > 100 µM (inactive)
OVCAR-4
  GI50: 33.3 µM (inactive)
HOP-18
  GI50: 32.4 µM (inactive)
MOLT-4
  GI50: 58.6 µM (inactive)
M14
  GI50: > 100 µM (inactive)

## NCCCNCCS [WR-1065]
LXFL 529
  GI50: > 100 µM (inactive)
TK-10
  GI50: > 100 µM (inactive)
SNB-78
  GI50: > 100 µM (inactive)
SK-MEL-2
  GI50: > 100 µM (inactive)
KM12
  GI50: > 100 µM (inactive)
RXF 631
  GI50: > 100 µM (inactive)
HCC 2998
  GI50: > 100 µM (inactive)
HT-29
  GI50: > 100 µM (inactive)
U-251
  GI50: > 100 µM (inactive)
K562
  GI50: > 100 µM (inactive)
OVCAR-8
  GI50: > 100 µM (inactive)
CAKI-1
  GI50: > 100 µM (inactive)
HL-60
  GI50: > 100 µM (inactive)
UACC-257
  GI50: > 100 µM (inactive)
RXF 393
  GI50: > 100 µM (inactive)
UO-31
  GI50: > 100 µM (inactive)
XF498
  GI50: > 100 µM (inactive)
SK-OV-3
  GI50: > 100 µM (inactive)
DMS-273
  GI50: > 100 µM (inactive)
SF-268
  GI50: > 100 µM (inactive)
A549
  GI50: > 100 µM (inactive)
HCT-15
  GI50: > 100 µM
SN12C
  GI50: > 100 µM (inactive)
OVCAR-5
  GI50: > 100 µM (inactive)
EKVX
  GI50: > 100 µM (inactive)
UACC-62
  GI50: > 100 µM (inactive)
SF-295
  GI50: > 100 µM (inactive)
HOP-92
  GI50: > 100 µM (inactive)
SNB-19
  GI50: > 100 µM (inactive)
SK-MEL-5
  GI50: > 100 µM (inactive)
KM-20L2
  GI50: > 100 µM (inactive)
OVCAR-4
  GI50: > 100 µM (inactive)
HOP-18
  GI50: > 100 µM (inactive)
MOLT-4
  GI50: > 100 µM (inactive)
M14
  GI50: > 100 µM (inactive)
